Results on 41 sequences are retold here after the OligoGym collection.

After the bases stand the sugars from the 5' end (letter, count) and the backbone: PS all phosphorothioate, else s phosphorothioate and o phosphodiester by linkage. Methylation of C is not given here. l = locked nucleic acid (LNA); d = 2'-deoxy (DNA)

The target in this data set is SNHG14. Particulars: ASO.
Where [1] appears, read: Mouse Primary Neuronal Cell, 0.005 µM.

For “AATTATTTATACACCATCAT (sugars llllddldddddddldddll, PS)”, the target mRNA inhibition (Human Neuronal Cell, 7.5 µM) came to 61%.
Regarding CCCTCAAAGTAATTTC (sugars l4 d10 l2, PS), the target mRNA inhibition runs as follows: (Human Neuronal Cell, 0.2 µM) 21%; (Human Neuronal Cell, 1 µM) 20%.
With “CAACATTATTAACCACCTTA (sugars l4 d10 l1 d2 l3, PS)”, the target mRNA inhibition (Human Neuronal Cell, 7.5 µM) was found to be 55%.
On the same count and under the same terms, under “TATTGATTCAATTCCCT (sugars l1 d10 l1 d2 l3, PS)” stands 65%.
As to “TCTTTCCATTTATTTCCATT (sugars l2 d4 l1 d10 l3, PS)”, the target mRNA inhibition (Human Neuronal Cell, 7.5 µM) stood at 57%.
Same read-out and setting: under “GTTTCCATCTACTATTAA (sugars ldddlldddddddlldll, PS)” stands 53%; under “TTCCATTTATTTCCATTTAT (sugars ldlddlddddddddldldll, PS)”, 63%.
Turning to “TTTTATACCTTTCTTTAACC (sugars l1 d15 l1 d1 l2, PS)”, the target mRNA inhibition (Human Neuronal Cell, 7.5 µM) was 24%.
Regarding “TTACCTACATCTCATACT (sugars l2 d12 l4, PS)”, the target mRNA inhibition was -6% (Human Neuronal Cell, 0.2 µM); -7% (Human Neuronal Cell, 1 µM); 16% (Human Neuronal Cell, 5 µM); 95.6% under setting [1].
Regarding “TTTTTATACCTTTCTTTAAC (sugars llldlddddddddldldlll, PS)”, the target mRNA inhibition (Human Neuronal Cell, 7.5 µM) was found to be 62%.
Still for that read-out and setting: under “AAATTATTTATACACCATCA (sugars ldlllddddddddlddllll, PS)” stands 68%.
Consider “GAAAATCTCAACTACCATT (sugars l4 d10 l2 d1 l2, PS)”, for which the target mRNA inhibition (Human Neuronal Cell, 7.5 µM) was 60%.
As to “ACCTACATCTCATACTT (sugars l2 d11 l4, PS)”, under setting [1], the target mRNA inhibition turned out to be 94.2%.
On to CAAATACAGATTATCC (sugars l2 d10 l4, PS), for which the target mRNA inhibition (Human Neuronal Cell, 0.2 µM) stood at 49% and the target mRNA inhibition (Human Neuronal Cell, 1 µM) came out at 59%.
For “TATCTTTCCATTTATTTCC (sugars l2 d12 l1 d2 l2, PS)”, the target mRNA inhibition (Human Neuronal Cell, 7.5 µM) amounted to 44%.
Same read-out and setting: under “ACTCTGCAATACACCAA (sugars l1 d1 l2 d10 l3, PS)” stands 63%.
On the same count and under the same terms, under “TTCTACTATACTTTCCTCT (sugars ldlddddddddddddldll, PS)” stands 63%; under “TATTGATTCAATTCCCT (sugars l2 d9 l1 d2 l3, PS)”, 51%; under “TTCTGTATACACCATCCC (sugars l1 d15 l2, PS)”, 58%.
TCATCCCTCCAAGAAA (sugars l2 d12 l2, PS): the target mRNA inhibition was -16% (Human Neuronal Cell, 0.2 µM); -28% (Human Neuronal Cell, 1 µM); -48% (Human Neuronal Cell, 5 µM).
With “CTATTCAATAAACTAAACA (sugars l4 d13 l2, PS)”, the target mRNA inhibition (Human Neuronal Cell, 0.2 µM) was -6% and the target mRNA inhibition (Human Neuronal Cell, 1 µM) is -9%.
On the same counts, the results for CCAACATAGATCCTCT (sugars l2 d10 l4, PS) are 55% and 67%.
Taken in the same sequence, the figures for “CTCCTTTATGACTCCAA (sugars l4 d11 l2, PS)” were 41% and 59%.
Take “ATCTTTCCATTTATTTCCAT (sugars lddlddddddddddddldll, PS)”: the target mRNA inhibition (Human Neuronal Cell, 7.5 µM) stood at 40%.
With “GCACATTCTTTCTATACC (sugars ldldlldddddddldlll, PS)”, the target mRNA inhibition (Human Neuronal Cell, 7.5 µM) amounted to 51%.
The same measure, in the same setting: under “ACTGTTTATACCCTTTC (sugars l2 d10 l1 d2 l2, PS)” stands 60%.
As to “TACTCTGCAATACACCA (sugars l2 d11 l4, PS)”, the target mRNA inhibition (Human Neuronal Cell, 0.2 µM) amounted to 57% and the target mRNA inhibition (Human Neuronal Cell, 1 µM) came out at 71%.
On the same counts, the results for “GAATCTTCTAATTCCAC (sugars l2 d11 l4, PS)” are 29% and 31%.
“ATCTTTCCATTTATTTCCA (sugars ldddlddddddddldddll, PS)”: the target mRNA inhibition (Human Neuronal Cell, 7.5 µM) came out at 42%.
Still for that read-out and setting: under “TGTTTCCATCTACTATTA (sugars l1 d4 l1 d8 l4, PS)” stands 67%.
With GTTTATACCCTTTCCA (sugars l2 d11 l3, PS), the target mRNA inhibition by setting is: (Human Neuronal Cell, 0.2 µM) 49%; (Human Neuronal Cell, 1 µM) 58%.
In the case of “TTTACACTTAATTATACTTC (sugars llldlddddddddlddllll, PS)”, the target mRNA inhibition (Human Neuronal Cell, 7.5 µM) turned out to be 55%.
Turning to CTCCATATTTAAATCC (sugars l4 d10 l2, PS), the target mRNA inhibition is, setting by setting: (Human Neuronal Cell, 0.2 µM) 8%; (Human Neuronal Cell, 1 µM) 21%.
Consider “TTGATTCAATTCCCTTA (sugars l2 d11 l1 d1 l2, PS)”, for which the target mRNA inhibition (Human Neuronal Cell, 7.5 µM) is 60%.
For the sequence CATTCTATCTGCCAAA (sugars l2 d10 l4, PS), the target mRNA inhibition was 55% (Human Neuronal Cell, 0.2 µM) and 64% (Human Neuronal Cell, 1 µM).
On to “TACTCTGCAATACACC (sugars l2 d1 l2 d9 l2, PS)”, for which the target mRNA inhibition (Human Neuronal Cell, 7.5 µM) is 64%.
Still for that read-out and setting: under “AGTTCTACTATACTTTCC (sugars l1 d15 l2, PS)” stands 11%.
For the sequence TTGTCTCTAATCCTAT (sugars l2 d10 l4, PS), the target mRNA inhibition by setting is: (Human Neuronal Cell, 0.2 µM) 38%; (Human Neuronal Cell, 1 µM) 54%.
Turning to GACCTCAATACTCTAC (sugars l4 d10 l2, PS), the target mRNA inhibition by setting is: (Human Neuronal Cell, 0.2 µM) 37%; (Human Neuronal Cell, 1 µM) 44%.
Consider “TTTATTTCCATTTATTTTCA (sugars ldldddddddddddlddlll, PS)”, for which, under “Human Neuronal Cell, 7.5 µM”, the target mRNA inhibition is 60%.
The same measure, in the same setting: under “ATTTACACTTAATTATACTT (sugars llddlllddddddlddllll, PS)” stands 38%.
